# Measurements from patent US20230329236A1, “HERBICIDAL PYRIMIDINE DERIVATIVES” (MoA Technology Limited, priority 2020, published 2023).
# Columns and labels:
# Zea mays (ZEAMX) = test: Post-emergence glasshouse test, visual injury, ZEAMX; type: in vivo; conditions: Table 4, post-emergence, 14±1 days post application
# Procedure: (§1) Seeds of a variety of test species are grown in a sandy loam soil mixture, Lolium multiflorum (LOLMU), Amaranthus retroflexus (AMARE), Echinochloa crus-gaffi (ECHCG), Veronica persica (VERPE), Glycine max (GLXMA), Oryza sativa (ORYSA), Zea mays (ZEAMX), spring wheat (TRZAS), Ipomoea hederacea (IPOHE), Ipomoea purpurea (PHBPU), Stellaria media (STEME), Solanum nigrum (SOLNI), Digitaria sanguinalis (DIGSA), Setaria italica (SETIT), Alopecurus myosuroides (ALOMY) and Avena fatua (AVEFA).
# (§2) After sowing, at growth stage BBCH 12-14 (post-emergence), the plants are sprayed with an aqueous spray solution derived from the formulation of the technical active ingredient in acetone/water (50:50) solution containing 0.5% Tween 20 (polyoxyethlyene sorbitan monolaureate, CAS RN 9005-64-5). The test compounds are applied at the required concentration of active ingredient in g/ha. The test plants are then grown in a glasshouse under controlled environmental conditions and watered regularly as required. After 14±1 days post application (for post-emergence test), the test is evaluated by assessing the percentage damage caused to the plants in comparison with the untreated plots. The biological activities for post-emergence testing are shown below (Table 3 and Table 4) as a % visual injury.
# Oryza sativa (ORYSA) = test: Post-emergence glasshouse test, visual injury, ORYSA; type: in vivo; conditions: Table 4, post-emergence, 14±1 days post application
# Procedure: as §1, §2
# [1] = system: Alopecurus myosuroides (ALOMY); test: Post-emergence glasshouse test, visual injury, ALOMY; type: in vivo; conditions: Table 4, post-emergence, 14±1 days post application
# Procedure: as §1, §2
# [2] = system: Echinochloa crus-gaffi (ECHCG); test: Post-emergence glasshouse test, visual injury, ECHCG; type: in vivo, Echinochloa crus-galli; conditions: 336 h, 14±1 days post application
# Outline: (§3)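 Values give visual injury (%) 14±1 days after a post-emergence spray at BBCH 12-14, with the active ingredient applied in g/ha from an acetone/water (50:50) solution containing 0.5% Tween 20.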
# [3] = system: Digitaria sanguinalis (DIGSA); test: Post-emergence glasshouse test, visual injury, DIGSA; type: in vivo; conditions: Table 4, post-emergence, 14±1 days post application
# Procedure: as §1, §2
# Solanum nigrum (SOLNI) = test: Post-emergence glasshouse test, visual injury, SOLNI; type: in vivo; conditions: Table 4, post-emergence, 14±1 days post application
# Procedure: as §1, §2
# Avena fatua (AVEFA) = test: Post-emergence glasshouse test, visual injury, AVEFA; type: in vivo; conditions: Table 4, post-emergence, 14±1 days post application
# Procedure: as §1, §2
# [4] = system: Lolium multiflorum (LOLMU); test: Post-emergence glasshouse test, visual injury, LOLMU; type: in vivo; conditions: 336 h, 14±1 days post application
# Outline: as §3
# [5] = system: Amaranthus retroflexus (AMARE); test: Post-emergence glasshouse test, visual injury, AMARE; type: in vivo; conditions: 336 h, 14±1 days post application
# Outline: as §3
# Veronica persica (VERPE) = test: Post-emergence glasshouse test, visual injury, VERPE; type: in vivo; conditions: 336 h, 14±1 days post application
# Outline: as §3
# [6] = system: Ipomoea hederacea (IPOHE); test: Post-emergence glasshouse test, visual injury, IPOHE; type: in vivo; conditions: Table 4, post-emergence, 14±1 days post application
# Procedure: as §1, §2
# Ipomoea purpurea (PHBPU) = test: Post-emergence glasshouse test, visual injury, PHBPU; type: in vivo; conditions: Table 4, post-emergence, 14±1 days post application
# Procedure: as §1, §2
# Setaria italica (SETIT) = test: Post-emergence glasshouse test, visual injury, SETIT; type: in vivo; conditions: Table 4, post-emergence, 14±1 days post application
# Procedure: as §1, §2
# Stellaria media (STEME) = test: Post-emergence glasshouse test, visual injury, STEME; type: in vivo; conditions: Table 4, post-emergence, 14±1 days post application
# Procedure: as §1, §2
# Glycine max (GLXMA) = test: Post-emergence glasshouse test, visual injury, GLXMA; type: in vivo; conditions: Table 4, post-emergence, 14±1 days post application
# Procedure: as §1, §2
# spring wheat (TRZAS) = test: Post-emergence glasshouse test, visual injury, TRZAS; type: in vivo; conditions: Table 4, post-emergence, 14±1 days post application
# Procedure: as §1, §2
# [7] = Table 4, post-emergence, 125 g/ha
# [8] = Table 4, post-emergence, 250 g/ha
# [9] = Table 4, post-emergence, 1000 g/ha
smiles,measurement,setting,value
Cc1cc(-c2cnc(NC3CCCC3)nc2C(C)C)on1 [Compound 45],ZEAMX % visual injury,Zea mays (ZEAMX); 125 g/ha,0%
same,ZEAMX % visual injury,Zea mays (ZEAMX); 250 g/ha,0%
same,ZEAMX % visual injury,Zea mays (ZEAMX); 500 g/ha,70%
same,ZEAMX % visual injury,Zea mays (ZEAMX); 1000 g/ha,40%
same,ORYSA % visual injury,Oryza sativa (ORYSA); 125 g/ha,50%
same,ORYSA % visual injury,Oryza sativa (ORYSA); 250 g/ha,99%
same,ORYSA % visual injury,Oryza sativa (ORYSA); 500 g/ha,90%
same,ORYSA % visual injury,Oryza sativa (ORYSA); 1000 g/ha,80%
same,ALOMY % visual injury,[1]; 125 g/ha,50%
same,ALOMY % visual injury,[1]; 250 g/ha,70%
same,ALOMY % visual injury,[1]; 500 g/ha,50%
same,ALOMY % visual injury,[1]; 1000 g/ha,80%
same,pest or weed control at 500 g/ha,"[2]; Table 3, post-emergence",100%
same,pest or weed control at 125 g/ha,[2]; [7],70%
same,pest or weed control at 250 g/ha,[2]; [8],80%
same,pest or weed control at 500 g/ha,"[2]; Table 4, post-emergence",80%
same,pest or weed control at 1000 g/ha,[2]; [9],90%
same,DIGSA % visual injury,[3]; 125 g/ha,80%
same,DIGSA % visual injury,[3]; 250 g/ha,70%
same,DIGSA % visual injury,[3]; 500 g/ha,95%
same,DIGSA % visual injury,[3]; 1000 g/ha,98%
same,SOLNI % visual injury,Solanum nigrum (SOLNI); 125 g/ha,98%
same,SOLNI % visual injury,Solanum nigrum (SOLNI); 250 g/ha,100%
same,SOLNI % visual injury,Solanum nigrum (SOLNI); 500 g/ha,100%
same,SOLNI % visual injury,Solanum nigrum (SOLNI); 1000 g/ha,100%
same,AVEFA % visual injury,Avena fatua (AVEFA); 125 g/ha,0%
same,AVEFA % visual injury,Avena fatua (AVEFA); 250 g/ha,40%
same,AVEFA % visual injury,Avena fatua (AVEFA); 500 g/ha,60%
same,AVEFA % visual injury,Avena fatua (AVEFA); 1000 g/ha,70%
same,pest or weed control at 500 g/ha,"[4]; Table 3, post-emergence",70%
same,pest or weed control at 125 g/ha,[4]; [7],40%
same,pest or weed control at 250 g/ha,[4]; [8],60%
same,pest or weed control at 500 g/ha,"[4]; Table 4, post-emergence",90%
same,pest or weed control at 1000 g/ha,[4]; [9],100%
same,pest or weed control at 500 g/ha,"[5]; Table 3, post-emergence",100%
same,pest or weed control at 125 g/ha,[5]; [7],95%
same,pest or weed control at 250 g/ha,[5]; [8],90%
same,pest or weed control at 500 g/ha,"[5]; Table 4, post-emergence",100%
same,pest or weed control at 1000 g/ha,[5]; [9],100%
same,pest or weed control at 500 g/ha,"Veronica persica (VERPE); Table 3, post-emergence",100%
same,pest or weed control at 125 g/ha,Veronica persica (VERPE); [7],100%
same,pest or weed control at 250 g/ha,Veronica persica (VERPE); [8],100%
same,pest or weed control at 500 g/ha,"Veronica persica (VERPE); Table 4, post-emergence",100%
same,pest or weed control at 1000 g/ha,Veronica persica (VERPE); [9],100%
same,IPOHE % visual injury,[6]; 125 g/ha,0%
same,IPOHE % visual injury,[6]; 250 g/ha,50%
same,IPOHE % visual injury,[6]; 500 g/ha,40%
same,IPOHE % visual injury,[6]; 1000 g/ha,60%
same,PHBPU % visual injury,Ipomoea purpurea (PHBPU); 125 g/ha,50%
same,PHBPU % visual injury,Ipomoea purpurea (PHBPU); 250 g/ha,70%
same,PHBPU % visual injury,Ipomoea purpurea (PHBPU); 500 g/ha,70%
same,PHBPU % visual injury,Ipomoea purpurea (PHBPU); 1000 g/ha,70%
same,SETIT % visual injury,Setaria italica (SETIT); 125 g/ha,50%
same,SETIT % visual injury,Setaria italica (SETIT); 250 g/ha,80%
same,SETIT % visual injury,Setaria italica (SETIT); 500 g/ha,95%
same,SETIT % visual injury,Setaria italica (SETIT); 1000 g/ha,95%
same,STEME % visual injury,Stellaria media (STEME); 125 g/ha,100%
same,STEME % visual injury,Stellaria media (STEME); 250 g/ha,100%
same,STEME % visual injury,Stellaria media (STEME); 500 g/ha,100%
same,STEME % visual injury,Stellaria media (STEME); 1000 g/ha,100%
same,GLXMA % visual injury,Glycine max (GLXMA); 125 g/ha,20%
same,GLXMA % visual injury,Glycine max (GLXMA); 250 g/ha,50%
same,GLXMA % visual injury,Glycine max (GLXMA); 500 g/ha,40%
same,GLXMA % visual injury,Glycine max (GLXMA); 1000 g/ha,50%
same,TRZAS % visual injury,spring wheat (TRZAS); 125 g/ha,0%
same,TRZAS % visual injury,spring wheat (TRZAS); 250 g/ha,30%
same,TRZAS % visual injury,spring wheat (TRZAS); 500 g/ha,30%
same,TRZAS % visual injury,spring wheat (TRZAS); 1000 g/ha,40%
